According to patent publication US10188622B2, “Use of a composition comprising fish oil and juice for the treatment and/or post treatment of cancer” (Smartfish AS, priority 2013, dated 2019):
Where “and” joins values, the source holds several entries; their conditions need not be identical. Identical values can stand only once.

Test system: MP2 cells co-cultured with NK (IL-2) cells
Assay: Enzymatic caspase-3 assay (CaspACE-3) in co-culture of pancreatic cancer cells and NK cells
Assay type: cell-based, human
Settings: 48 hours; for Casp-3, X1 / Casp-3, X2 / Casp-3, X3 / Casp-3, Mean: MP2 cells + NK (IL-2); for Casp-3, X1: experiment X1; for Casp-3, X1 / Casp-3, X2 / Casp-3, X3: RvD1 and DHA 50 nM; for Casp-3, X2: experiment X2; for Casp-3, X3: experiment X3; for Casp-3, Mean: mean of X1-X3; for caspase-3 expression (mean ± 2× standard error): PDAC (MP2) cells co-cultured with NK cells, as stated in text
Description: Mia Paca2 (MP2) and L3.6 cells from pancreatic ductal adenocarcinoma so (PDAC) were obtained from T. Donahue, UCLA Surgery and were propagated in Dulbecco's Modified Eagle's Medium (DME) with 10% foetal calf serum. 10,000 cells were plated in each well of 24-well plates and were grown at 37° C. and 24 h to near confluence before testing.
These were isolated from human blood by NK cell isolation kit (Stem cell technologies, Vancouver, Canada). NK cells were activated by treatment with IL-2 or IL2/CD16 as described in Tseng, H. C. et al. “Increased lysis of stem cells but not their differentiated cells by natural killer cells; de-differentiation or reprogramming activates NK cells.” PLOS One 5(7): e11590, 2010.
Composition of the invention (Nutrifriend 2000) containing DHA (1000 mg/200 ml) and EPA (1000 mg/200 ml) was purchased by the company Smartfish AS, Oslo, For use in cell culture, diluted 1:2 with fetal calf serum, sonicated for 30 sec and then diluted 1:100 in DMEM with 10% fetal calf serum.
NK cells were added to MP2 or L3.6 cells at a ratio of 5 NK cells per 1 MP2 cell. The co-cultures were treated with Smartfish. Addition of DHA (50 nM) or resolvin D1 (RvD1 from Cayman Chemical company, Ann Arbor, Mich., 50 nM) were tested as controls. The co-cultures is were grown for 48 hours, harvested and tested by the caspase-3 assay.
The enzymatic caspase-3 assay was performed by the CaspACE-3 assay G-7351 (Promega Corporation, Madison, Wis.) according to the manufacturer's instructions.
The data were analyzed by comparing the range of means (mean+/−2× standard error of mean). When indicated the exact value was calculated by the Fisher exact test.

`CC/C=C\C/C=C\C/C=C\C/C=C\C/C=C\C/C=C\CCC(=O)O` [DHA, docosahexanoic acid] was tested, and the “Casp-3, X1” value was 5.7 µM, the “Casp-3, X2” value was 6.6 µM and the “Casp-3, X3” value was 6 µM. For the same compound, the “Casp-3, Mean” value was 6.1 µM and the “caspase-3 expression (mean ± 2× standard error)” value was 6.1 µM and 6.1 ± 0.48 µM.

With `CC/C=C\C[C@H](O)/C=C/C=C\C=C\C=C\[C@@H](O)[C@@H](O)C/C=C\CCC(=O)O` [RvD1, resolvin D1] the “Casp-3, X1” value was 6 µM, the “Casp-3, X2” value was 6.3 µM and the “Casp-3, X3” value was 6.6 µM. For the same compound, the “Casp-3, Mean” value was 6.3 µM, the “caspase-3 expression (mean ± 2× standard error)” value was 6.3 ± 0.31 µM and the “caspase-3 expression (mean ± 2× standard error)” value (listed as resolvinD1) was 6.3 ± 0.31 µM.
